Assays:
[1] = Lipophilicity: partition between n-octanol and PBS pH 7.4; assay type: physicochemical; details: n-octanol/PBS pH 7.4, M: 99mTc, three determinations
Experimental: The lipophilicity of HPLC purified technetium-99m complexes 1′–6′ was determined by measuring the partition coefficient (logD7.4) between n-octanol and phosphate-buffered saline (PBS, pH 7.4) based on established literature methods and is briefly described here. An aliquot of each technetium-99m complex was added to a mixture of equal volumes (2.0 mL each) of n-octanol and PBS (pH 7.4) in a 5 mL centrifuge tube. The mixture was vigorously vortexed for 2 min and then centrifuged at 5000 rpm for 5 min to ensure complete phase separation. After centrifugation, 0.1 mL aliquots from both the n-octanol and PBS phases were sampled and their radioactivity was measured using a gamma counter. The log P was calculated using the following equation: […]. The procedure was repeated three times for each complex to ensure reproducibility.

[2] = system: Swiss Albino mice with induced infection (Staphylococcus aureus) and aseptic inflammation (turpentine); assay: Biodistribution in mice with induced infection and aseptic inflammation; assay type: in vivo; details: for Urine radioactivity: per sample
Experimental: The in vivo behavior of HPLC purified technetium-99m complexes 1′–6′ was evaluated through biodistribution studies in Swiss Albino mice (40 ± 5 g) with induced infection and aseptic inflammation. The experiment was conducted in accordance with the guidelines for the protection of animals used for scientific purposes. Mice were divided into groups and prepared for biodistribution studies by inducing infection and aseptic inflammation. Twenty-four hours prior to the injection of the technetium complexes, the left thigh muscle of each mouse was inoculated with 50 µL of a Staphylococcus aureus suspension (1 × 10^6 CFU/mL) to induce infection. Aseptic inflammation was induced in the right thigh muscle by injecting 50 µL of turpentine oil. The technetium-99m complexes were administered intravenously via the tail vein. Each mouse received an injection of 0.037 MBq of the respective technetium-99m complex. The biodistribution was studied at two different time points, 15 min and 120 min post-injection. At each time point, the mice were sacrificed under anesthesia. Blood samples were obtained by cardiac puncture. The organs of interest were collected after dissection, including the liver, heart, kidneys, stomach, intestines, spleen, muscle (normal, infected, and inflamed), lungs, pancreas, and urinary bladder. The organs were made free from adhering tissues and transferred into pre-weighed counting vials. The radioactivity of the collected samples was measured using a shielded well-type gamma counter. The results were expressed as a percentage of injected dose per gram of tissue (% ID/g). The radioactivity ratios in infected muscle to normal muscle and inflamed muscle to normal muscle were calculated to assess the specificity and selectivity of the technetium complexes for infection and inflammation.

**Q.** For `COc1ccc(P(c2ccc(OC)cc2)c2ccc(OC)cc2)cc1.O=C(O)c1cn(C2CC2)c2cc(N3CCN(C(=S)[S][99Tc])CC3)c(F)cc2c1=O.[C-]#[O+].[C-]#[O+].[C-]#[O+]` [complex 3′, fac-[^99mTc(CO)3(Cip-DTC)(TMPP)]], which LogD7.4 [1] is on record?
**A.** The LogD7.4 was 2.7.

**Q.** What about the “Aseptic Infl. (turpentine inflamed muscle) radioactivity” value ([2]; 15 min post i.v. injection) of the same compound?
**A.** The value was 0.15 ± 0.07 %ID/g.

**Q.** What about the Blood radioactivity ([2]; 15 min post i.v. injection) of the same compound?
**A.** Its Blood radioactivity is 2.54 ± 0.25 %ID/g.

**Q.** What about the Heart radioactivity ([2]; 15 min post i.v. injection) of the same compound?
**A.** The Heart radioactivity was 0.74 ± 0.32 %ID/g.

**Q.** And the “Infection (S. aureus infected muscle) radioactivity” value (shortened to “Infection”) ([2]; 15 min post i.v. injection)?
**A.** Its value is 0.27 ± 0.11 %ID/g.

**Q.** And the Intestines radioactivity ([2]; 15 min post i.v. injection)?
**A.** Its Intestines radioactivity is 0.36 ± 0.25 %ID/g.

**Q.** What about the Kidneys radioactivity ([2]; 15 min post i.v. injection) of the same compound?
**A.** The Kidneys radioactivity was 1.40 ± 0.57 %ID/g.

**Q.** What about the Liver radioactivity ([2]; 15 min post i.v. injection) of the same compound?
**A.** The Liver radioactivity was 47.48 ± 1.30 %ID/g.

**Q.** And the Lungs radioactivity ([2]; 15 min post i.v. injection)?
**A.** The Lungs radioactivity was 9.58 ± 0.86 %ID/g.

**Q.** And the Pancreas radioactivity ([2]; 15 min post i.v. injection)?
**A.** Its Pancreas radioactivity is 0.29 ± 0.13 %ID/g.

**Q.** What about the Spleen radioactivity ([2]; 15 min post i.v. injection) of the same compound?
**A.** The Spleen radioactivity was 33.88 ± 2.81 %ID/g.

**Q.** And the Stomach radioactivity ([2]; 15 min post i.v. injection)?
**A.** The Stomach radioactivity was 0.64 ± 0.61 %ID/g.

**Q.** And the Urine radioactivity ([2]; 15 min post i.v. injection)?
**A.** Its Urine radioactivity is 0.00 ± 0.00 %ID.

**Q.** What about the “Aseptic Infl. (turpentine inflamed muscle) radioactivity” value ([2]; 120 min post i.v. injection) of the same compound?
**A.** The value was 0.52 ± 0.23 %ID/g.

**Q.** And the Blood radioactivity ([2]; 120 min post i.v. injection)?
**A.** The Blood radioactivity was 6.71 ± 0.50 %ID/g.

**Q.** What about the Heart radioactivity ([2]; 120 min post i.v. injection) of the same compound?
**A.** Its Heart radioactivity is 3.48 ± 0.23 %ID/g.

**Q.** What about the “Infection” value ([2]; 120 min post i.v. injection) of the same compound?
**A.** Its value is 1.14 ± 0.05 %ID/g.

**Q.** And the Intestines radioactivity ([2]; 120 min post i.v. injection)?
**A.** Its Intestines radioactivity is 3.52 ± 0.19 %ID/g.

**Q.** And the Kidneys radioactivity ([2]; 120 min post i.v. injection)?
**A.** Its Kidneys radioactivity is 5.65 ± 0.78 %ID/g.

**Q.** And the Liver radioactivity ([2]; 120 min post i.v. injection)?
**A.** The Liver radioactivity was 27.58 ± 0.66 %ID/g.

**Q.** What about the Lungs radioactivity ([2]; 120 min post i.v. injection) of the same compound?
**A.** The Lungs radioactivity was 8.67 ± 0.72 %ID/g.

**Q.** What about the “Muscle (normal) radioactivity” value ([2]; 120 min post i.v. injection) of the same compound?
**A.** The value was 0.34 ± 0.02 %ID/g.

**Q.** What about the Pancreas radioactivity ([2]; 120 min post i.v. injection) of the same compound?
**A.** The Pancreas radioactivity was 0.93 ± 0.20 %ID/g.

**Q.** What about the Spleen radioactivity ([2]; 120 min post i.v. injection) of the same compound?
**A.** The Spleen radioactivity was 23.10 ± 1.74 %ID/g.

**Q.** What about the Stomach radioactivity ([2]; 120 min post i.v. injection) of the same compound?
**A.** Its Stomach radioactivity is 1.21 ± 0.32 %ID/g.

**Q.** What about the “aseptic inflammation/normal muscle ratio” value ([2]; 120 min post i.v. injection) of the same compound?
**A.** The value was 1.51.

**Q.** And the infected/normal muscle ratio ([2]; 120 min post i.v. injection)?
**A.** Its infected/normal muscle ratio is 3.32.

**Q.** What about the Urine radioactivity ([2]; 120 min post i.v. injection) of the same compound?
**A.** The Urine radioactivity was 0.01 ± 0.02 %ID.

**Q.** And the “blood clearance / blood radioactivity course” value ([2]; within 120 min)?
**A.** Its value is “increasing”.

**Q.** For “fac-[M(CO)3(Cip-DTC)(DMPP)] [complex 5′]”, which LogD7.4 [1] is on record?
**A.** The LogD7.4 was 2.0.

**Q.** What about the Liver radioactivity ([2]; 15 min post i.v. injection) of the same compound?
**A.** Its Liver radioactivity is 35.51 ± 0.97 %ID/g.

**Q.** What about the Lungs radioactivity ([2]; 15 min post i.v. injection) of the same compound?
**A.** The Lungs radioactivity was 9.87 ± 0.89 %ID/g.

**Q.** What about the “Muscle (normal) radioactivity” value ([2]; 15 min post i.v. injection) of the same compound?
**A.** Its value is 0.40 ± 0.06 %ID/g.

**Q.** What about the Pancreas radioactivity ([2]; 15 min post i.v. injection) of the same compound?
**A.** Its Pancreas radioactivity is 0.83 ± 0.18 %ID/g.

**Q.** And the Spleen radioactivity ([2]; 15 min post i.v. injection)?
**A.** Its Spleen radioactivity is 18.04 ± 0.73 %ID/g.

**Q.** What about the Intestines radioactivity ([2]; 120 min post i.v. injection) of the same compound?
**A.** The Intestines radioactivity was 9.98 ± 1.22 %ID/g.

**Q.** What about the Kidneys radioactivity ([2]; 120 min post i.v. injection) of the same compound?
**A.** The Kidneys radioactivity was 5.69 ± 1.44 %ID/g.

**Q.** What about the Liver radioactivity ([2]; 120 min post i.v. injection) of the same compound?
**A.** Its Liver radioactivity is 31.27 ± 5.71 %ID/g.

**Q.** What about the Lungs radioactivity ([2]; 120 min post i.v. injection) of the same compound?
**A.** The Lungs radioactivity was 5.37 ± 0.47 %ID/g.

**Q.** What about the “Muscle (normal) radioactivity” value ([2]; 120 min post i.v. injection) of the same compound?
**A.** Its value is 1.34 ± 0.09 %ID/g.

**Q.** And the Pancreas radioactivity ([2]; 120 min post i.v. injection)?
**A.** The Pancreas radioactivity was 3.68 ± 0.48 %ID/g.

**Q.** What about the Spleen radioactivity ([2]; 120 min post i.v. injection) of the same compound?
**A.** Its Spleen radioactivity is 7.64 ± 1.22 %ID/g.

**Q.** With “fac-[M(CO)3(Cip-DTC)(ADAP)] [complex 6′]” as the compound, how does the LogD7.4 [1] read?
**A.** Its LogD7.4 is 1.6.

**Q.** What about the “Aseptic Infl. (turpentine inflamed muscle) radioactivity” value ([2]; 15 min post i.v. injection) of the same compound?
**A.** Its value is 1.10 ± 0.06 %ID/g.

**Q.** What about the Blood radioactivity ([2]; 15 min post i.v. injection) of the same compound?
**A.** Its Blood radioactivity is 2.18 ± 0.06 %ID/g.

**Q.** And the Heart radioactivity ([2]; 15 min post i.v. injection)?
**A.** The Heart radioactivity was 4.27 ± 0.42 %ID/g.

**Q.** What about the “Infection” value ([2]; 15 min post i.v. injection) of the same compound?
**A.** The value was 0.94 ± 0.09 %ID/g.

**Q.** And the Intestines radioactivity ([2]; 15 min post i.v. injection)?
**A.** The Intestines radioactivity was 3.22 ± 0.32 %ID/g.

**Q.** And the Kidneys radioactivity ([2]; 15 min post i.v. injection)?
**A.** The Kidneys radioactivity was 8.05 ± 0.22 %ID/g.

**Q.** And the Liver radioactivity ([2]; 15 min post i.v. injection)?
**A.** The Liver radioactivity was 20.95 ± 1.56 %ID/g.

**Q.** What about the Lungs radioactivity ([2]; 15 min post i.v. injection) of the same compound?
**A.** Its Lungs radioactivity is 7.13 ± 0.35 %ID/g.

**Q.** What about the “Muscle (normal) radioactivity” value ([2]; 15 min post i.v. injection) of the same compound?
**A.** The value was 1.01 ± 0.12 %ID/g.

**Q.** And the Pancreas radioactivity ([2]; 15 min post i.v. injection)?
**A.** The Pancreas radioactivity was 3.70 ± 0.26 %ID/g.

**Q.** And the Spleen radioactivity ([2]; 15 min post i.v. injection)?
**A.** The Spleen radioactivity was 6.40 ± 0.66 %ID/g.

**Q.** And the Stomach radioactivity ([2]; 15 min post i.v. injection)?
**A.** The Stomach radioactivity was 0.98 ± 0.29 %ID/g.

**Q.** What about the Urine radioactivity ([2]; 15 min post i.v. injection) of the same compound?
**A.** Its Urine radioactivity is 0.37 ± 0.08 %ID.

**Q.** And the “Aseptic Infl. (turpentine inflamed muscle) radioactivity” value ([2]; 120 min post i.v. injection)?
**A.** The value was 0.66 ± 0.10 %ID/g.

**Q.** What about the Blood radioactivity ([2]; 120 min post i.v. injection) of the same compound?
**A.** The Blood radioactivity was 1.33 ± 0.10 %ID/g.

**Q.** What about the Heart radioactivity ([2]; 120 min post i.v. injection) of the same compound?
**A.** The Heart radioactivity was 1.94 ± 0.31 %ID/g.

**Q.** And the “Infection” value ([2]; 120 min post i.v. injection)?
**A.** Its value is 0.69 ± 0.09 %ID/g.

**Q.** And the Intestines radioactivity ([2]; 120 min post i.v. injection)?
**A.** Its Intestines radioactivity is 10.24 ± 1.11 %ID/g.

**Q.** And the Kidneys radioactivity ([2]; 120 min post i.v. injection)?
**A.** The Kidneys radioactivity was 4.47 ± 0.52 %ID/g.

**Q.** What about the Liver radioactivity ([2]; 120 min post i.v. injection) of the same compound?
**A.** Its Liver radioactivity is 22.98 ± 2.70 %ID/g.

**Q.** And the Lungs radioactivity ([2]; 120 min post i.v. injection)?
**A.** Its Lungs radioactivity is 3.06 ± 0.10 %ID/g.

**Q.** What about the “Muscle (normal) radioactivity” value ([2]; 120 min post i.v. injection) of the same compound?
**A.** Its value is 0.69 ± 0.05 %ID/g.

**Q.** What about the Pancreas radioactivity ([2]; 120 min post i.v. injection) of the same compound?
**A.** The Pancreas radioactivity was 2.27 ± 0.37 %ID/g.

**Q.** What about the Spleen radioactivity ([2]; 120 min post i.v. injection) of the same compound?
**A.** The Spleen radioactivity was 2.55 ± 0.27 %ID/g.

**Q.** What about the Stomach radioactivity ([2]; 120 min post i.v. injection) of the same compound?
**A.** Its Stomach radioactivity is 3.14 ± 0.69 %ID/g.

**Q.** And the Urine radioactivity ([2]; 120 min post i.v. injection)?
**A.** The Urine radioactivity was 1.49 ± 0.23 %ID.

Source: PMC11435093, “Synthesis and Evaluation of ^99mTc(CO)3 Complexes with Ciprofloxacin Dithiocarbamate for Infection Imaging” (Pharmaceutics, 2024)
